Like-named read-outs stand apart in the source and are kept apart here.
Experiments:
Experiment in all cases: biochemical
Format in all cases: binding
panel of 442 kinases [1] = biological target: T1, panel of 442 kinases (Homo sapiens, UniProt Q96PY6); conditions: kinase NEK1; for remaining activity at 1 µM: read-out: % of control at 1 µM
T1 construct: purchased Ambit Biosciences (scanMAXX KINOMEscan)
T1 sequence (Q96PY6 1-1258): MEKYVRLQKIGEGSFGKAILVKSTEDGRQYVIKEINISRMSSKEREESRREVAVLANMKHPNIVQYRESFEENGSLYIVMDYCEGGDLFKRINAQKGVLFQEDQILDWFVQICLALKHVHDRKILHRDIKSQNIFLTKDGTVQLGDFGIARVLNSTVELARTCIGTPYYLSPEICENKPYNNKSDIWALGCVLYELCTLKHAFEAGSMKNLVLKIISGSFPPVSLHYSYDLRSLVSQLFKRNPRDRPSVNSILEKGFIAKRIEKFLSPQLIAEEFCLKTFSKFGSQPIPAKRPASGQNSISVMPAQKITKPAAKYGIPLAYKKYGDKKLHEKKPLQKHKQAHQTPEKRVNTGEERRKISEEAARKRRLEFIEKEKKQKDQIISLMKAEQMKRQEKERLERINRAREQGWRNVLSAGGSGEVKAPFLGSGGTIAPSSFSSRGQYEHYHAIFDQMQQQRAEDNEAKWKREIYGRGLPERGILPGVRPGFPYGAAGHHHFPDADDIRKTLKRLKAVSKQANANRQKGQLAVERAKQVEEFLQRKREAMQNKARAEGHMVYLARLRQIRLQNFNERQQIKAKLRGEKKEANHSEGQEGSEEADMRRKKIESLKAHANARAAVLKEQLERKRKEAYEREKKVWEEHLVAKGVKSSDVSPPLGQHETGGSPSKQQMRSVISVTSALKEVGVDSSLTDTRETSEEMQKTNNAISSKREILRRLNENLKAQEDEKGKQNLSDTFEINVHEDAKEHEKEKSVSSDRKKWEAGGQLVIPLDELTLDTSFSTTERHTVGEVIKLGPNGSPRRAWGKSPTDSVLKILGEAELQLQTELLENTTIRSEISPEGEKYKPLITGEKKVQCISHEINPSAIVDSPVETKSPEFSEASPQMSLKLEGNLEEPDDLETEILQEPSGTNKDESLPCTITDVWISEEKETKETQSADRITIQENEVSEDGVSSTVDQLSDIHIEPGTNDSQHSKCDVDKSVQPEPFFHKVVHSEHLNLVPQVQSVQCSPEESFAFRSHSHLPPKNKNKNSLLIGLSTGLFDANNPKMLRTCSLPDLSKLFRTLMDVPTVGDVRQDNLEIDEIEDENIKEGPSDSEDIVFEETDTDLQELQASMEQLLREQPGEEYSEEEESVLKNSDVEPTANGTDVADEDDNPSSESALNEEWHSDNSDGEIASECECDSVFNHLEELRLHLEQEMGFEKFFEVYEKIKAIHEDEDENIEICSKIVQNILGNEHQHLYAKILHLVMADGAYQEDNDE

panel of 442 kinases [2] = biological target: T2, panel of 442 kinases (Homo sapiens, UniProt Q8N568); conditions: DCAMKL2; for remaining activity at 1 µM: read-out: % of control at 1 µM
T2 construct: purchased Ambit Biosciences (scanMAXX KINOMEscan)

panel of 442 kinases [3] = biological target: T3, panel of 442 kinases (Homo sapiens, UniProt Q9BVS4); conditions: kinase RIOK2; for remaining activity at 1 µM: read-out: RIOK2 (% of control at 1 µM)
T3 construct: purchased Ambit Biosciences (scanMAXX KINOMEscan)

panel of 442 kinases [4] = biological target: T4, panel of 442 kinases (Homo sapiens, UniProt Q15349)
T4 construct: purchased Ambit Biosciences (scanMAXX KINOMEscan)

panel of 442 kinases [5] = biological target: T5, panel of 442 kinases (Homo sapiens, UniProt P19784); conditions: CSNK2A2; for remaining activity at 1 µM: read-out: % of control at 1 µM
T5 construct: purchased Ambit Biosciences (scanMAXX KINOMEscan)

panel of 442 kinases [6] = biological target: T6, panel of 442 kinases (Homo sapiens, UniProt Q86UX6); conditions: kinase YANK3; for remaining activity at 1 µM: read-out: YANK3 (% of control at 1 µM)
T6 construct: purchased Ambit Biosciences (scanMAXX KINOMEscan)

panel of 442 kinases [7] = biological target: T7, panel of 442 kinases (Homo sapiens, UniProt O15111); conditions: kinase IKK-alpha; for remaining activity at 1 µM: read-out: % of control at 1 µM
T7 construct: purchased Ambit Biosciences (scanMAXX KINOMEscan)
T7 sequence (O15111 1-745): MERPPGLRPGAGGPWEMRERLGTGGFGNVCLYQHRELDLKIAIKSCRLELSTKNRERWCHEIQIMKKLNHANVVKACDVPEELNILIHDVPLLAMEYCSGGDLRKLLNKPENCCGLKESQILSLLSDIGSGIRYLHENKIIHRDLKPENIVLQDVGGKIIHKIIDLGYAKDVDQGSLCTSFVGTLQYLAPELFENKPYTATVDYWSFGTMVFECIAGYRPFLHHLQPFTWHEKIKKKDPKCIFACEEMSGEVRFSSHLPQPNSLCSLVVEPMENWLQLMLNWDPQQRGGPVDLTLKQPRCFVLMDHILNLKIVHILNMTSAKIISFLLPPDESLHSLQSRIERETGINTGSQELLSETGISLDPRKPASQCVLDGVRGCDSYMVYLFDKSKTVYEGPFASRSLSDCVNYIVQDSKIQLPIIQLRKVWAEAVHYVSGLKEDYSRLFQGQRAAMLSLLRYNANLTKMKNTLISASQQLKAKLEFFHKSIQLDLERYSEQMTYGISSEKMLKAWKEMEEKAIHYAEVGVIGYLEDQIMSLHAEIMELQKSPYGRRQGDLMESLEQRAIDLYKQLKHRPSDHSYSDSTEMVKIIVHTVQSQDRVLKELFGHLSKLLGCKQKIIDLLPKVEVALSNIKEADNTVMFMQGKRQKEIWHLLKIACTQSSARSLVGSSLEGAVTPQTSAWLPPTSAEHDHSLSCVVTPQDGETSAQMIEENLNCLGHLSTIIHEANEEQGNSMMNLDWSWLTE

panel of 442 kinases [8] = biological target: T8, panel of 442 kinases (Homo sapiens, UniProt P42338); conditions: kinase PIK3CB; 1 µM; read-out: % of control at 1 µM
T8 construct: purchased Ambit Biosciences (scanMAXX KINOMEscan)

[9] = 10 µM, read-out: % of control at 10 µM
[10] = kinase RSK3(Kin.Dom.1-N-terminal), read-out: RSK3(Kin.Dom.1-N-terminal) (% of control at 1 µM)
[11] = kinase RSK3(Kin.Dom.2-C-terminal), read-out: RSK3(Kin.Dom.2-C-terminal) (% of control at 1 µM)

T2 sequence (Q8N568 whole entry): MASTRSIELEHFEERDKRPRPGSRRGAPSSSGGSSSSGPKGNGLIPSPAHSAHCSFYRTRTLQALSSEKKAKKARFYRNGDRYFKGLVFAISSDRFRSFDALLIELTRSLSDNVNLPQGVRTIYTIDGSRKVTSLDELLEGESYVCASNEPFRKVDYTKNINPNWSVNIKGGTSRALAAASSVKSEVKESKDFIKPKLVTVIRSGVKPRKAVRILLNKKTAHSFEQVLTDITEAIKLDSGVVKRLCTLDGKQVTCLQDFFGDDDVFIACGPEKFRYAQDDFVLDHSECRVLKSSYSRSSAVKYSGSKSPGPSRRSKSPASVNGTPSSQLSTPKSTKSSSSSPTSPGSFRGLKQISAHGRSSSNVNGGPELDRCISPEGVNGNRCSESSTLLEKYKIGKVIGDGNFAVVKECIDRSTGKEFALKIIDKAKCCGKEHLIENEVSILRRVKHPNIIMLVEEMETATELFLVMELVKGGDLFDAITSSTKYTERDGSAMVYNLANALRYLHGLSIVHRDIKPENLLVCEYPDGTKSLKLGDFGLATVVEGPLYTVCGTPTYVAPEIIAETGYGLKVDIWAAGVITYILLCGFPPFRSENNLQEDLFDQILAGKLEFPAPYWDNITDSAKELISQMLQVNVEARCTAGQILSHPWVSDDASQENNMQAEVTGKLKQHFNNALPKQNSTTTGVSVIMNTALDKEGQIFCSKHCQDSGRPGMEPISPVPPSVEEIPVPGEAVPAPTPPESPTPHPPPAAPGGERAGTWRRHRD
T5 sequence (P19784 whole entry): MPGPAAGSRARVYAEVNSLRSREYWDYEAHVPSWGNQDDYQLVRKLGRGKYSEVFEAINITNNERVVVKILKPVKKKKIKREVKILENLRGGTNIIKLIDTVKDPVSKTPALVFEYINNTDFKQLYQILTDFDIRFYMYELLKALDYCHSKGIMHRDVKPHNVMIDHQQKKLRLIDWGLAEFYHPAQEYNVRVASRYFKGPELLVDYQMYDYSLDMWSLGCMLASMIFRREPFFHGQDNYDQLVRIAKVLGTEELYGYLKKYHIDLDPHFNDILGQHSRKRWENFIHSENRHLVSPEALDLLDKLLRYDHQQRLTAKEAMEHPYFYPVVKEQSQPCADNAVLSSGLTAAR
T6 sequence (Q86UX6 whole entry): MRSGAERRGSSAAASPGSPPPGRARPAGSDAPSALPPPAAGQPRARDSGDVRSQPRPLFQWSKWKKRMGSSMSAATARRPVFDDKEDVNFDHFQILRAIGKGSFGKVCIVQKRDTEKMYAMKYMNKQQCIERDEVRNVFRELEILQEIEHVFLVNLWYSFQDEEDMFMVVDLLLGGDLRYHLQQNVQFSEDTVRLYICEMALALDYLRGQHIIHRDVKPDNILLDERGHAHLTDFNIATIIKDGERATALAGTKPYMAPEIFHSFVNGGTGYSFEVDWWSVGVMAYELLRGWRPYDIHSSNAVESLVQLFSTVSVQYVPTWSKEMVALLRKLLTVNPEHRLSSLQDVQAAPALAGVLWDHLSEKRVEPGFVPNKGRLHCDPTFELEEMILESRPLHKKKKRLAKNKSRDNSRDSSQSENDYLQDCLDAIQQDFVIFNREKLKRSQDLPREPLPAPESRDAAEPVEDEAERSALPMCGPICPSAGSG
T8 sequence (P42338 whole entry): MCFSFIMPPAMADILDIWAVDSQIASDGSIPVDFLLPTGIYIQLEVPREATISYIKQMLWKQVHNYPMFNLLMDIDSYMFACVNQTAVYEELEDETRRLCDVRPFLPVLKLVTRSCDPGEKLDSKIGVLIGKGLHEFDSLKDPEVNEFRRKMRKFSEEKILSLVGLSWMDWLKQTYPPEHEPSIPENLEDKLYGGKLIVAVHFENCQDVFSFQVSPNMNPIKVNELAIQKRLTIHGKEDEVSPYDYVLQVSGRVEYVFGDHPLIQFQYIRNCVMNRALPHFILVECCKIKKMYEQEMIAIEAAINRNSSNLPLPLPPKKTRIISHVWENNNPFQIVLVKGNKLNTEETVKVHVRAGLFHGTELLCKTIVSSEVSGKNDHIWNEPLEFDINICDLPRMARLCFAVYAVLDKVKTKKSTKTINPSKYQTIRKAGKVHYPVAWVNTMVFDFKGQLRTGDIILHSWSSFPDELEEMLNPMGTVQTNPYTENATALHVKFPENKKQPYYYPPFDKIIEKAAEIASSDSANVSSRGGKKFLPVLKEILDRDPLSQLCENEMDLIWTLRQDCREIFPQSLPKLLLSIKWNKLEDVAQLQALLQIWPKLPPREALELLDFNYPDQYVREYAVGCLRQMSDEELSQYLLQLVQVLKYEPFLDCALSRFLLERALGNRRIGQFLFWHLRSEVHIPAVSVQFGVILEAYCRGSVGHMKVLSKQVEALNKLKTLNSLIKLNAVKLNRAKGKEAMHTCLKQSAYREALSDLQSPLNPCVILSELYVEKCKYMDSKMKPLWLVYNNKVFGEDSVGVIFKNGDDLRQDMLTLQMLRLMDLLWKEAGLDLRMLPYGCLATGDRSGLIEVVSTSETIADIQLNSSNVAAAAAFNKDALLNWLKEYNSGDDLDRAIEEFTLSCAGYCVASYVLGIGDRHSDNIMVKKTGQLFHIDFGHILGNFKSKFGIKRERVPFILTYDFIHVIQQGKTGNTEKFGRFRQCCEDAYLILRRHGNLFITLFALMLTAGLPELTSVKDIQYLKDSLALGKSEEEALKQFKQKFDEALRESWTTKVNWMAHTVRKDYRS
T3 sequence (Q9BVS4 whole entry): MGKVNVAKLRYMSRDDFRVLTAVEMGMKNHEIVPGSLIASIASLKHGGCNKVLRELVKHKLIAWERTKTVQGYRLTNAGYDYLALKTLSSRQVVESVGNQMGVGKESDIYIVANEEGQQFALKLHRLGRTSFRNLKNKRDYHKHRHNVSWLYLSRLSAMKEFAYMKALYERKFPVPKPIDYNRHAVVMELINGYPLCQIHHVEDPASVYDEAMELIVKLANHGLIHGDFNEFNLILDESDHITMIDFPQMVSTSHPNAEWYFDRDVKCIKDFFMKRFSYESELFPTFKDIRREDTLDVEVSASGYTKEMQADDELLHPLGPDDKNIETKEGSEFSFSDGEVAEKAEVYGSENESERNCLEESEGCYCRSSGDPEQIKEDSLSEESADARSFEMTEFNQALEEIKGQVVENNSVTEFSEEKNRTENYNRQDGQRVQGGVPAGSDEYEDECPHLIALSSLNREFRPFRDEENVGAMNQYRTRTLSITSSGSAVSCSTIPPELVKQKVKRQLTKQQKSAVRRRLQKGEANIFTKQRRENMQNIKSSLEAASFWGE
T4 sequence (Q15349 whole entry): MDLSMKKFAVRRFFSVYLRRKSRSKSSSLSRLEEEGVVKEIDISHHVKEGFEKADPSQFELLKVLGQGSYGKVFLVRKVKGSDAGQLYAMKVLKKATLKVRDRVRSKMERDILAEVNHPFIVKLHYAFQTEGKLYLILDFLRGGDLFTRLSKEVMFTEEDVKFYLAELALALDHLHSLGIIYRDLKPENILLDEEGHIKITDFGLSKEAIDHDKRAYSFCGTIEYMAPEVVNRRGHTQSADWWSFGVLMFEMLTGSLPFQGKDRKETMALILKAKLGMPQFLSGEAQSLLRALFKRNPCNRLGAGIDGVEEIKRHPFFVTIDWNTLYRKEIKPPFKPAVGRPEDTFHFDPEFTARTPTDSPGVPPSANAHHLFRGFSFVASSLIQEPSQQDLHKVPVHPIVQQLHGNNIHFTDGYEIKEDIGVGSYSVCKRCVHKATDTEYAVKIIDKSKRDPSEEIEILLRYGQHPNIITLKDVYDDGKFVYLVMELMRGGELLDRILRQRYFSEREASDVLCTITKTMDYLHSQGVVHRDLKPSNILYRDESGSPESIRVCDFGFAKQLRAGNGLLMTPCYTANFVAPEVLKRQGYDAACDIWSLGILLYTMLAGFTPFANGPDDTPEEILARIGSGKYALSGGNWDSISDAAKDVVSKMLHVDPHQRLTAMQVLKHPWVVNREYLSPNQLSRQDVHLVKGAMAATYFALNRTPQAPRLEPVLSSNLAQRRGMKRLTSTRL

Molecule Nc1cc(C(F)(F)F)c(-c2cc(N3CCOCC3)nc(N3CCOCC3)n2)cn1 [Buparlisib] has a remaining activity at 1 µM (panel of 442 kinases [1]) of 100%, a remaining activity at 10 µM (panel of 442 kinases [1]; [9]) of 100% and a remaining activity at 1 µM (panel of 442 kinases [2]) of 100%. It also gave a remaining activity at 10 µM (panel of 442 kinases [2]; [9]) of 100%, a remaining activity at 1 µM (panel of 442 kinases [3]) of 100% and a remaining activity at 10 µM (panel of 442 kinases [3]; 10 µM, read-out: RIOK2 (% of control at 10 µM)) of 100%. It also gave a remaining activity at 1 µM (panel of 442 kinases [4]; [10]) of 95%, a remaining activity at 10 µM (panel of 442 kinases [4]; kinase RSK3(Kin.Dom.1-N-terminal), read-out: RSK3(Kin.Dom.1-N-terminal) (% of control at 10 µM)) of 100% and a remaining activity at 1 µM (panel of 442 kinases [4]; [11]) of 100%. It also gave a remaining activity at 10 µM (panel of 442 kinases [4]; kinase RSK3(Kin.Dom.2-C-terminal), read-out: RSK3(Kin.Dom.2-C-terminal) (% of control at 10 µM)) of 100%, a remaining activity at 1 µM (panel of 442 kinases [5]) of 84% and a remaining activity at 10 µM (panel of 442 kinases [5]; [9]) of 75%. The remaining activity at 1 µM (panel of 442 kinases [6]) was 94%, the remaining activity at 10 µM (panel of 442 kinases [6]; 10 µM, read-out: YANK3 (% of control at 10 µM)) was 100% and the remaining activity at 1 µM (panel of 442 kinases [7]) was 59%. The remaining activity at 10 µM (panel of 442 kinases [7]; [9]) was 59%.

Cn1c(=O)n(-c2ccc(C(C)(C)C#N)cc2)c2c3cc(-c4cnc5ccccc5c4)ccc3ncc21 [Dactolisib, 2-methyl-2-[4-(3-methyl-2-oxo-8-quinolin-3-yl-2,3-dihydroimidazo[4,5-c]quinolin-1-yl)-phenyl] propionitrile] showed a remaining activity at 1 µM (panel of 442 kinases [1]) of 98%, a remaining activity at 1 µM (panel of 442 kinases [2]) of 94% and a remaining activity at 1 µM (panel of 442 kinases [3]) of 65%. It also gave a remaining activity at 1 µM (panel of 442 kinases [4]; [10]) of 70%, a remaining activity at 1 µM (panel of 442 kinases [4]; [11]) of 75% and a remaining activity at 1 µM (panel of 442 kinases [5]) of 99%. The remaining activity at 1 µM (panel of 442 kinases [6]) was 88%, the remaining activity at 1 µM (panel of 442 kinases [8]) was 64% and the remaining activity at 1 µM (panel of 442 kinases [7]) was 63%.

COc1ncc(-c2ccc3nccc(-c4ccnnc4)c3c2)cc1NS(=O)(=O)c1ccc(F)cc1F [Omipalisib] gave a remaining activity at 1 µM (panel of 442 kinases [1]) of 87%, a remaining activity at 1 µM (panel of 442 kinases [2]) of 100% and a remaining activity at 1 µM (panel of 442 kinases [3]) of 100%. The remaining activity at 1 µM (panel of 442 kinases [4]; [10]) was 100%, the remaining activity at 1 µM (panel of 442 kinases [4]; [11]) was 100% and the remaining activity at 1 µM (panel of 442 kinases [5]) was 75%. The remaining activity at 1 µM (panel of 442 kinases [6]) was 100%, the remaining activity at 1 µM (panel of 442 kinases [8]) was 0% and the remaining activity at 1 µM (panel of 442 kinases [7]) was 100%.

FC(F)c1nc2ccccc2n1-c1nc(N2CCOCC2)nc(N2CCOCC2)n1 [ZSTK474, 2-(difluoromethyl)-1-[4,6-di(4-morpholinyl)-1,3,5-triazin-2-yl]-1H-benzimidazole] was tested, and the remaining activity at 1 µM (panel of 442 kinases [1]) was 100%, the remaining activity at 1 µM (panel of 442 kinases [2]) was 100% and the remaining activity at 1 µM (panel of 442 kinases [3]) was 39%. It also gave a remaining activity at 1 µM (panel of 442 kinases [4]; [10]) of 100%, a remaining activity at 1 µM (panel of 442 kinases [4]; [11]) of 100% and a remaining activity at 1 µM (panel of 442 kinases [5]) of 88%. For the same molecule, the remaining activity at 1 µM (panel of 442 kinases [6]) was 73%, the remaining activity at 1 µM (panel of 442 kinases [8]) was 0% and the remaining activity at 1 µM (panel of 442 kinases [7]) was 73%.
